# Data from ChEMBL document CHEMBL4270485, “Determination of Gymnemic Acid I as a Protein Biosynthesis Inhibitor Using Chemical Proteomics” (J Nat Prod, 2017).
# Key:
# [1] = target: Eukaryotic initiation factor 4A-II (Homo sapiens) (UniProt Q14240); experiment: Binding affinity to eukaryotic initiation factor 4A-II in human Hela cells lysates assessed as protein enrichment by measuring normalized heavy/light ratio at by nano-LC-ESIMS/MS analysis; format: cell-free
# [2] = target: T1, 80S Ribosome (Homo sapiens) (UniProt P08865+P42677+P62753+P15880+P23396+P61247+P62701+P22090+P46782+P62081+P62241+P46781+P46783+P62280+P25398+P62277+P62263+P62841+P62244+P62249+P08708+P62269+P39019+P60866+P63220+P62266+P62847+P62851+P62854+P62979+P62857+P62273+P62861+P39023+P36578+P46777+Q02878+P18124+P62424+P62917+P32969+P27635+P62906+P62913+P30050+P26373+P40429+P50914+P61313+P18621+Q07020+Q02543+P84098+P46778+P35268+P62829+P62750+P83731+P61254+P61353+P46776+P46779+P47914+P62888+P62899+P62910+P49207+P42766+P18077+Q9Y3U8+P83881+P61927+P61513+P63173+P62891+P62945+P05388+P05386); experiment: Binding affinity to 60S ribosomal protein L4 in human Hela cells lysates assessed as protein enrichment by measuring normalized heavy/light ratio at by nano-LC-ESIMS/MS analysis; format: cell-free
# [3] = target: 14-3-3 protein zeta/delta (Homo sapiens) (UniProt P63104); experiment: Binding affinity to […] zeta/delta in human Hela cells lysates assessed as protein enrichment by measuring normalized heavy/light ratio at by nano-LC-ESIMS/MS analysis; format: cell-free
# Sequence of 14-3-3 protein zeta/delta (Homo sapiens) (P63104 whole entry): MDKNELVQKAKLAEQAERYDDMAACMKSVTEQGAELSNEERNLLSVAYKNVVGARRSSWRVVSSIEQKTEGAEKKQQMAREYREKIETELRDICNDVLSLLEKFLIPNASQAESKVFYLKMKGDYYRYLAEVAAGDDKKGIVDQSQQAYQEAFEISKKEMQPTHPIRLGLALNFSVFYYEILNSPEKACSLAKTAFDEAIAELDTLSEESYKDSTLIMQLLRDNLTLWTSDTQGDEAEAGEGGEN
# Oryctolagus cuniculus = species: Oryctolagus cuniculus; experiment: Inhibition of protein synthesis in rabbit reticulocytes pre-incubated for 30 mins before labeled-lysine-t-RNA and amino acid mixture addition and measured after 1 hr by luciferase reporter gene assay; format: functional, cell-based
# [4] = target: Poly(rC)-binding protein 2 (Homo sapiens) (UniProt Q15366); experiment: Binding affinity to poly(rC)-binding protein 2 in human Hela cells lysates assessed as protein enrichment by measuring normalized heavy/light ratio at by nano-LC-ESIMS/MS analysis; format: cell-free
# Sequence of Poly(rC)-binding protein 2 (Homo sapiens) (Q15366 whole entry): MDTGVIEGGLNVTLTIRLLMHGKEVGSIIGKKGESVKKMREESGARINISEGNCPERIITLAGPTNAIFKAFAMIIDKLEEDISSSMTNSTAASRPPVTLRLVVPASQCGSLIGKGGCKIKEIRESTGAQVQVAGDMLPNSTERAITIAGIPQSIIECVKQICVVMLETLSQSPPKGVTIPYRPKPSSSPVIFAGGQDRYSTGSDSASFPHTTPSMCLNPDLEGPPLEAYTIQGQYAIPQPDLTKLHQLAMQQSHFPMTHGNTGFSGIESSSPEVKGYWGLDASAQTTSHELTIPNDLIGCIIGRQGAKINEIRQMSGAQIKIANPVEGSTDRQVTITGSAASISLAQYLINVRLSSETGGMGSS
# Vimentin (Homo sapiens) = Vimentin (Homo sapiens) (UniProt P08670); experiment: Binding affinity to vimentin in human Hela cells lysates assessed as protein enrichment by measuring normalized heavy/light ratio at by nano-LC-ESIMS/MS analysis; format: cell-free
# Sequence of Vimentin (Homo sapiens) (P08670 whole entry): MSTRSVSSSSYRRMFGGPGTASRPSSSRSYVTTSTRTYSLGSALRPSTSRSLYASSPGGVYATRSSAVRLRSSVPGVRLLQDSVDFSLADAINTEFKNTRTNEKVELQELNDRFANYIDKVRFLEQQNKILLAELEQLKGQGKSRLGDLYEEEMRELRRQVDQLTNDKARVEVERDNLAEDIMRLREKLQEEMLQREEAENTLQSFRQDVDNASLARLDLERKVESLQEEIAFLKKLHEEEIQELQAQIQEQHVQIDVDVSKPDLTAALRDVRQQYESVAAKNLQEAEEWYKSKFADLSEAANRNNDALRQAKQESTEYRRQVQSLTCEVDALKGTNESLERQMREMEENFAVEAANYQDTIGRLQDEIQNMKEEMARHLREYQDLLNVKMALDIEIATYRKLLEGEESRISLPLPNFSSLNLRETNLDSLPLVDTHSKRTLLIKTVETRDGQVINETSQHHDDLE
# [5] = target: T1, 80S Ribosome (Homo sapiens); experiment: Binding affinity to 40S ribosomal protein S3a in human Hela cells lysates assessed as protein enrichment by measuring normalized heavy/light ratio at by nano-LC-ESIMS/MS analysis; format: cell-free
# [6] = target: Actin, cytoplasmic 1 (Homo sapiens) (UniProt P60709); experiment: Binding affinity to actin, Cytoplasmic1 in human Hela cells lysates assessed as protein enrichment by measuring normalized heavy/light ratio at by nano-LC-ESIMS/MS analysis; format: cell-free
# [7] = target: Pyruvate kinase PKM (Homo sapiens) (UniProt P14618); experiment: Binding affinity to pyruvate kinase isozymes M1/M2 in human Hela cells lysates assessed as protein enrichment by measuring normalized heavy/light ratio at by nano-LC-ESIMS/MS analysis; format: cell-free
# Sequence of Pyruvate kinase PKM (Homo sapiens) (P14618 2-531 limits assumed): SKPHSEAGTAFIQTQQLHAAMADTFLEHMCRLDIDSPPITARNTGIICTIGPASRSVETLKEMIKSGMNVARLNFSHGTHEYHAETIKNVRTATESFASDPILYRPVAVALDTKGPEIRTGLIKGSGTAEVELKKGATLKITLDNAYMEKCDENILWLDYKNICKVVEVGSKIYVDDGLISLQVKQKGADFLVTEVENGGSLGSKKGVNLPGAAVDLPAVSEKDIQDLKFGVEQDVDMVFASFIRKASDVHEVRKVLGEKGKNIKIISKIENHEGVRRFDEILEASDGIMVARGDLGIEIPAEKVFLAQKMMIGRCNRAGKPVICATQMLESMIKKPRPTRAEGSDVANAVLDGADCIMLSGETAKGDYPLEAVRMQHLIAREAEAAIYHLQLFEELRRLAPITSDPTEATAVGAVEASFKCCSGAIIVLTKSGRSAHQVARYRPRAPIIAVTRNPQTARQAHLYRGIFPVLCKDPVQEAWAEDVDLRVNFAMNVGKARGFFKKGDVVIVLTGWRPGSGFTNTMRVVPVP
# [8] = target: Elongation factor 1-delta (Homo sapiens) (UniProt P29692); experiment: Binding affinity to elongation factor 1-delta in human Hela cells lysates assessed as protein enrichment by measuring normalized heavy/light ratio at by nano-LC-ESIMS/MS analysis; format: cell-free
# Sequence of Elongation factor 1-delta (Homo sapiens) (P29692 whole entry): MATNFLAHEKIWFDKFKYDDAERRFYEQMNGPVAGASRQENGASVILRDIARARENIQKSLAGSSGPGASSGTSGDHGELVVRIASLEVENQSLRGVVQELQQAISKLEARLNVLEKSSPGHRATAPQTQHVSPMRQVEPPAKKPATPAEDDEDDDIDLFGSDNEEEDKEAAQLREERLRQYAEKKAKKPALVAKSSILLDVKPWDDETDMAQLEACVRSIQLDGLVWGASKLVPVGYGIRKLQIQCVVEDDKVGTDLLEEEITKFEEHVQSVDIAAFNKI
# [9] = target: T1, 80S Ribosome (Homo sapiens); experiment: Binding affinity to 60S acidic ribosomal protein P1 in human Hela cells lysates assessed as protein enrichment by measuring normalized heavy/light ratio at by nano-LC-ESIMS/MS analysis; format: cell-free
# [10] = target: T1, 80S Ribosome (Homo sapiens); experiment: Binding affinity to 40S ribosomal protein S14 in human Hela cells lysates assessed as protein enrichment by measuring normalized heavy/light ratio at by nano-LC-ESIMS/MS analysis; format: cell-free
# [11] = target: Tubulin beta-4B chain (Homo sapiens) (UniProt P68371); experiment: Binding affinity to tubulin beta-4B chain in human Hela cells lysates assessed as protein enrichment by measuring normalized heavy/light ratio at by nano-LC-ESIMS/MS analysis
# Sequence of Tubulin beta-4B chain (Homo sapiens) (P68371 whole entry, looked up): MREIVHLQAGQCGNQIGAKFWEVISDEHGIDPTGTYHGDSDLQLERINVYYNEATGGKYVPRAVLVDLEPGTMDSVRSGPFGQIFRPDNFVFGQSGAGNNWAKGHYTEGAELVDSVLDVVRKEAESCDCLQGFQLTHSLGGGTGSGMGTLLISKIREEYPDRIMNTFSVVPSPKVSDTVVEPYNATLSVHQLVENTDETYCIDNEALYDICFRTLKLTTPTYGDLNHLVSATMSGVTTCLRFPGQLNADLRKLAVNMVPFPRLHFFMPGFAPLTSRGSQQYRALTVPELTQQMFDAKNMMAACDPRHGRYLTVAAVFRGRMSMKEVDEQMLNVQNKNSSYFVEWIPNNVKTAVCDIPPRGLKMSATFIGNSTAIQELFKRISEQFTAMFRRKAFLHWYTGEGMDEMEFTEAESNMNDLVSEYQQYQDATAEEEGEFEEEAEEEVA
# [12] = target: Elongation factor 2 (Homo sapiens) (UniProt P13639); experiment: Binding affinity to elongation factor 2 in human Hela cells lysates assessed as protein enrichment by measuring normalized heavy/light ratio at by nano-LC-ESIMS/MS analysis; format: cell-free
# [13] = target: Ras-related protein Rab-7a (Homo sapiens) (UniProt P51149); experiment: Binding affinity to ras-related protein rab-7a in human Hela cells lysates assessed as protein enrichment by measuring normalized heavy/light ratio at by nano-LC-ESIMS/MS analysis; format: cell-free
# Sequence of Ras-related protein Rab-7a (Homo sapiens) (P51149 whole entry): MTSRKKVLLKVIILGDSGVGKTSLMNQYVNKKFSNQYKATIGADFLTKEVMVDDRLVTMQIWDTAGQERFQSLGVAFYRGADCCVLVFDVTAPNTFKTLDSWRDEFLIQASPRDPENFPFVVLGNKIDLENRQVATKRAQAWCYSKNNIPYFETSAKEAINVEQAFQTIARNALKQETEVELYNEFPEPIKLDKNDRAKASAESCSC
# [14] = target: Small ribosomal subunit protein eS6 (Homo sapiens) (UniProt P62753); experiment: Binding affinity to 40S ribosomal protein S6 in human Hela cells lysates assessed as protein enrichment by measuring normalized heavy/light ratio at by nano-LC-ESIMS/MS analysis; format: cell-free
# [15] = target: T1, 80S Ribosome (Homo sapiens); experiment: Binding affinity to 60S ribosomal protein L35 in human Hela cells lysates assessed as protein enrichment by measuring normalized heavy/light ratio at by nano-LC-ESIMS/MS analysis; format: cell-free
# [16] = target: Tubulin beta-5 chain (Homo sapiens) (UniProt P07437); experiment: Binding affinity to tubulin beta chain in human Hela cells lysates assessed as protein enrichment by measuring normalized heavy/light ratio at by nano-LC-ESIMS/MS analysis; format: cell-free
# Sequence of Tubulin beta-5 chain (Homo sapiens) (P07437 whole entry): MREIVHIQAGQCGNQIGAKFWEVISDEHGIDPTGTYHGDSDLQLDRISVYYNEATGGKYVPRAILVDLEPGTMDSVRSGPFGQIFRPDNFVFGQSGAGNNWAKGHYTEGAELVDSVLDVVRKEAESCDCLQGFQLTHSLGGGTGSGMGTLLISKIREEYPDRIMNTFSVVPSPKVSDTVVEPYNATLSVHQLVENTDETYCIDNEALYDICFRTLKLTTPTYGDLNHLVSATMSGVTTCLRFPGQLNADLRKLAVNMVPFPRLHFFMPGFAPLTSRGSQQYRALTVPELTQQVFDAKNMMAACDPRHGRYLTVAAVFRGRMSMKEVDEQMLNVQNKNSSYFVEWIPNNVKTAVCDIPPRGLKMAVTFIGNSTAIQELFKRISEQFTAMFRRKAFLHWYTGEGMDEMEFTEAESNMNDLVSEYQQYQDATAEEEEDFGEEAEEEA
# Sequence of Eukaryotic initiation factor 4A-II (Homo sapiens) (Q14240 whole entry): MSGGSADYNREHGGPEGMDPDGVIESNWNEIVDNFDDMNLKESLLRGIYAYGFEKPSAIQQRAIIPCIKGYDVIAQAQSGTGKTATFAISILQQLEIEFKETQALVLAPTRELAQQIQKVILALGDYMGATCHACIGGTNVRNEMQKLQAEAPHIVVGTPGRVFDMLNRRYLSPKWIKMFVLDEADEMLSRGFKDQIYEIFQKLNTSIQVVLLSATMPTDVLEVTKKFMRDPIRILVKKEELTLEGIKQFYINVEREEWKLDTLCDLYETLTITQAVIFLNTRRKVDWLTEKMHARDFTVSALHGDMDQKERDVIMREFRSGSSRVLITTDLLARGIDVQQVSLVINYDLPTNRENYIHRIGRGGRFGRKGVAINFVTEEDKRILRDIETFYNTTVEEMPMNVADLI
smiles,measurement,setting,value
C/C=C(\C)C(=O)O[C@H]1[C@H](O)[C@]2(COC(C)=O)[C@@H](O)C[C@]3(C)C(=CC[C@@H]4[C@@]5(C)CC[C@H](O[C@@H]6O[C@H](C(=O)O)[C@@H](O)[C@H](O)[C@H]6O)[C@@](C)(CO)[C@@H]5CC[C@]43C)[C@@H]2CC1(C)C,Ratio,[1],0.404
same,Ratio,[2],0.396
same,Ratio,[3],0.62
same,inhibition,Oryctolagus cuniculus,Dose-dependent effect
same,Ratio,[4],0.633
same,Ratio,Vimentin (Homo sapiens),0.817
same,Ratio,[5],0.238
same,Ratio,[6],0.436
same,Ratio,[7],0.899
same,Ratio,[8],0.622
same,Ratio,[9],0.27
same,Ratio,[10],0.405
same,Ratio,[11],0.423
same,Ratio,[12],0.688
same,Ratio,[13],0.568
same,Ratio,[14],0.317
same,Ratio,[15],0.062
same,Ratio,[16],0.52
